Test results reported in patent publication US20220313698A1, “MODULATORS OF CYSTIC FIBROSIS TRANSMEMBRANE CONDUCTANCE REGULATOR” (Vertex Pharmaceuticals Incorporated, priority 2019, published 2022).

Target: CFTR-mediated chloride transport (Homo sapiens, UniProt P13569)
Experiment: Corrector Assay A - membrane potential dye assay (enteroid cells)
Conditions: for Corrector Assay A % activity: % of chloride transport of triple combination control (1 μM (14S)-dispiro macrocycle + 3 μM tezacaftor + 300 nM ivacaftor); for EC50: read-out: Corrector Assay A EC50, human intestinal enteroid cells, 18-24 h incubation, acute 10 μM forskolin + 300 nM ivacaftor

Row | Compound | Corrector Assay A % activity | EC50 [nM]
1 | CC(C)(C)c1ccnc(C2CC[C@@H]3CN(c4nc(C(C)(C)C)ncc4C(=O)NS(=O)(=O)c4cccc(n4)N2)C(C)(C)C3)c1 (single isomer, unassigned) [Compound 1] | + (+ is <30%) | 
2 | CC(C)(C)c1ccnc(C2CC[C@@H]3CN(c4nc(C(C)(C)C)ncc4C(=O)NS(=O)(=O)c4cccc(n4)N2)C(C)(C)C3)c1 (single isomer, unassigned) [Compound 2] | +++ (+++ is >60%) | < 1000
3 | Cc1cccc2cc3c(nc12)N1C[C@@H](CCC(c2cc(C(C)(C)C)ccn2)Nc2cccc(n2)S(=O)(=O)NC3=O)CC1(C)C (single isomer, unassigned) [Compound 3] | +++ (+++ is >60%) | < 1000
4 | Cc1cccc2cc3c(nc12)N1C[C@@H](CCC(c2cc(C(C)(C)C)ccn2)Nc2cccc(n2)S(=O)(=O)NC3=O)CC1(C)C (single isomer, unassigned) [Compound 4] | ++ (++ is 30-60%) | < 1000
5 | Cc1ccc2nc3c(cc2c1)C(=O)NS(=O)(=O)c1cccc(n1)N[C@H](c1cc(C(C)(C)C)ccn1)CC[C@@H]1CN3C(C)(C)C1 (single isomer, unassigned) [Compound 5] | +++ (+++ is >60%) | < 1000
6 | Cc1ccc2nc3c(cc2c1)C(=O)NS(=O)(=O)c1cccc(n1)N[C@H](c1cc(C(C)(C)C)ccn1)CC[C@@H]1CN3C(C)(C)C1 (single isomer, unassigned) [Compound 6] | ++ (++ is 30-60%) | < 1000
7 | Cc1ccc2cc3c(nc2c1)N1C[C@@H](CC[C@@H](c2cc(C(C)(C)C)ccn2)Nc2cccc(n2)S(=O)(=O)NC3=O)CC1(C)C (single isomer, unassigned) [Compound 7] | +++ (+++ is >60%) | < 1000
8 | Cc1ccc2cc3c(nc2c1)N1C[C@@H](CC[C@@H](c2cc(C(C)(C)C)ccn2)Nc2cccc(n2)S(=O)(=O)NC3=O)CC1(C)C (single isomer, unassigned) [Compound 8] | ++ (++ is 30-60%) | < 1000
9 | CC(C)(C)c1ccnc([C@@H]2CC[C@@H]3CN(c4nc5ccccc5cc4C(=O)NS(=O)(=O)c4cccc(n4)N2)C(C)(C)C3)c1 (single isomer, unassigned) [Compound 9] | +++ (+++ is >60%) | < 1000
10 | CC(C)(C)c1ccnc([C@@H]2CC[C@@H]3CN(c4nc5ccccc5cc4C(=O)NS(=O)(=O)c4cccc(n4)N2)C(C)(C)C3)c1 (single isomer, unassigned) [Compound 10] | ++ (++ is 30-60%) | < 1000
11 | CC(O)CC1CC[C@@H]2CN(c3nc(C(C)(C)C)ccc3C(=O)NS(=O)(=O)c3cccc(n3)N1)C(C)(C)C2 (single isomer, unassigned) [Compound 20] | ++ (++ is 30-60%) | < 1000
12 | CC(O)CC1CC[C@@H]2CN(c3nc(C(C)(C)C)ccc3C(=O)NS(=O)(=O)c3cccc(n3)N1)C(C)(C)C2 (single isomer, unassigned) [Compound 22] | ++ (++ is 30-60%) | < 1000
13 | CC(C)(O)/C=C/CC1CC[C@@H]2CN(c3nc(C(C)(C)C)ccc3C(=O)NS(=O)(=O)c3cccc(n3)N1)C(C)(C)C2 (single isomer, unassigned) [Compound 23] | +++ (+++ is >60%) | < 1000
14 | CC(C)(O)/C=C/CC1CC[C@@H]2CN(c3nc(C(C)(C)C)ccc3C(=O)NS(=O)(=O)c3cccc(n3)N1)C(C)(C)C2 (single isomer, unassigned) [Compound 24] | ++ (++ is 30-60%) | < 1000
15 | CC(C)(C)c1ccc2c(n1)N1C[C@@H](CCC(c3cc(C4COC4)ccn3)Nc3cccc(n3)S(=O)(=O)NC2=O)CC1(C)C (single isomer, unassigned) [Compound 25] | +++ (+++ is >60%) | < 1000
16 | CC(C)(C)c1ccc2c(n1)N1C[C@@H](CCC(c3cc(C4COC4)ccn3)Nc3cccc(n3)S(=O)(=O)NC2=O)CC1(C)C (single isomer, unassigned) [Compound 26] | +++ (+++ is >60%) | < 1000
17 | C[C@@H](O)C[C@@H]1CC[C@@H]2CN(c3nc(C(C)(C)C)ccc3C(=O)NS(=O)(=O)c3cccc(n3)N1)C(C)(C)C2 (single isomer, unassigned) [Compound 27] | ++ (++ is 30-60%) | < 1000
18 | C[C@@H](O)C[C@@H]1CC[C@@H]2CN(c3nc(C(C)(C)C)ccc3C(=O)NS(=O)(=O)c3cccc(n3)N1)C(C)(C)C2 (single isomer, unassigned) [Compound 28] | +++ (+++ is >60%) | < 1000
19 | CC(C)(C)c1ccc2c(n1)N1C[C@@H](CCC(CC(O)CO)Nc3cccc(n3)S(=O)(=O)NC2=O)CC1(C)C (single isomer, unassigned) [Compound 30] | ++ (++ is 30-60%) | < 1000

Row | Compound | Corrector Assay A % activity | EC50 [nM]
20 | CC(C)(C)c1ccc2c(n1)N1C[C@@H](CCC(CC(O)CO)Nc3cccc(n3)S(=O)(=O)NC2=O)CC1(C)C (single isomer, unassigned) [Compound 31] | ++ (++ is 30-60%) | < 1000
21 | CC(C)(C)c1ccc2c(n1)N1C[C@@H](CCC(CC(O)CO)Nc3cccc(n3)S(=O)(=O)NC2=O)CC1(C)C (single isomer, unassigned) [Compound 32] | +++ (+++ is >60%) | < 1000
22 | CC(C)(C)c1ccc2c(n1)N1C[C@@H](CCC(CC(O)CO)Nc3cccc(n3)S(=O)(=O)NC2=O)CC1(C)C (single isomer, unassigned) [Compound 33] | +++ (+++ is >60%) | < 1000
23 | C=CCC1CC[C@@H]2CN(c3nc(C(C)(C)C)ccc3C(=O)NS(=O)(=O)c3cccc(n3)N1)C(C)(C)C2 (single isomer, unassigned) [Compound 34] | +++ (+++ is >60%) | < 1000
24 | C=CCC1CC[C@@H]2CN(c3nc(C(C)(C)C)ccc3C(=O)NS(=O)(=O)c3cccc(n3)N1)C(C)(C)C2 (single isomer, unassigned) [Compound 35] | ++ (++ is 30-60%) | < 1000
25 | CC(C)(C)c1ccc2c(n1)N1C[C@@H](CCC(c3cc(C(C)(C)O)ccn3)Nc3cccc(n3)S(=O)(=O)NC2=O)CC1(C)C (single isomer, unassigned) [Compound 36] | +++ (+++ is >60%) | < 1000
26 | CC(C)(C)c1ccc([C@@H]2CC[C@@H]3CN(c4nc(C(C)(C)C)ccc4C(=O)NS(=O)(=O)c4cccc(n4)N2)C(C)(C)C3)cc1 (single isomer, unassigned) [Compound 37] | ++ (++ is 30-60%) | < 1000
27 | CC(C)(C)c1ccc([C@@H]2CC[C@@H]3CN(c4nc(C(C)(C)C)ccc4C(=O)NS(=O)(=O)c4cccc(n4)N2)C(C)(C)C3)cc1 (single isomer, unassigned) [Compound 38] | +++ (+++ is >60%) | < 1000
28 | CC(C)(C)c1ccc2c(n1)N1C[C@@H](CCC(c3ccc(C4COC4)cn3)Nc3cccc(n3)S(=O)(=O)NC2=O)CC1(C)C (single isomer, unassigned) [Compound 39] | +++ (+++ is >60%) | < 1000
29 | CC(C)(C)c1cccc(C2CC[C@@H]3CN(c4nc(C(C)(C)C)ccc4C(=O)NS(=O)(=O)c4cccc(n4)N2)C(C)(C)C3)c1 (single isomer, unassigned) [Compound 40] | ++ (++ is 30-60%) | < 1000
30 | CC(C)(C)c1cccc(C2CC[C@@H]3CN(c4nc(C(C)(C)C)ccc4C(=O)NS(=O)(=O)c4cccc(n4)N2)C(C)(C)C3)c1 (single isomer, unassigned) [Compound 41] | +++ (+++ is >60%) | < 1000
31 | CC1(C)CC(C2CC[C@@H]3CN(c4nc(C(C)(C)C)ccc4C(=O)NS(=O)(=O)c4cccc(n4)N2)C(C)(C)C3)CC(C)(C)O1 (single isomer, unassigned) [Compound 42] | ++ (++ is 30-60%) | < 1000
32 | CC1(C)CC(C2CC[C@@H]3CN(c4nc(C(C)(C)C)ccc4C(=O)NS(=O)(=O)c4cccc(n4)N2)C(C)(C)C3)CC(C)(C)O1 (single isomer, unassigned) [Compound 43] | + (+ is <30%) | 
33 | CC(C)(C)c1ccc2c(n1)N1C[C@@H](CCC(C)(c3ccccn3)Nc3cccc(n3)S(=O)(=O)NC2=O)CC1(C)C (single isomer, unassigned) [Compound 44] | ++ (++ is 30-60%) | < 1000
34 | CC(C)(C)c1ccc2c(n1)N1C[C@@H](CCC(C)(c3ccccn3)Nc3cccc(n3)S(=O)(=O)NC2=O)CC1(C)C (single isomer, unassigned) [Compound 45] | ++ (++ is 30-60%) | < 1000
35 | CC(C)(C)c1ccc2c(n1)N1C[C@@H](CCC(c3cc(Br)ccn3)Nc3cccc(n3)S(=O)(=O)NC2=O)CC1(C)C (single isomer, unassigned) [Compound 46] | +++ (+++ is >60%) | < 1000
36 | CC(C)(C)c1ccc2c(n1)N1C[C@@H](CCC(c3cc(Br)ccn3)Nc3cccc(n3)S(=O)(=O)NC2=O)CC1(C)C (single isomer, unassigned) [Compound 47] | ++ (++ is 30-60%) | < 1000
37 | CC(C)(C)c1ccc2c(n1)N1C[C@@H](CCC(c3cc(N)ccn3)Nc3cccc(n3)S(=O)(=O)NC2=O)CC1(C)C (single isomer, unassigned) [Compound 48] | ++ (++ is 30-60%) | 1000 to 3000
38 | CC(C)(C)c1ccc2c(n1)N1C[C@@H](CCC(c3cc(N)ccn3)Nc3cccc(n3)S(=O)(=O)NC2=O)CC1(C)C (single isomer, unassigned) [Compound 49] | ++ (++ is 30-60%) | < 1000
